Patent US7459450B2, “Neuropeptide receptor modulators” (Schering Corporation, priority 2004, dated 2008)

These molecules were tested against T1, Human NPY Y1 receptors (Homo sapiens, UniProt P25929) (assay: NPY Receptor Binding Assay). Details: not given.
T1 construct: expressed in transfected cells; host or cells: CHO cells (membrane protein)
T1 sequence (P25929 1-384): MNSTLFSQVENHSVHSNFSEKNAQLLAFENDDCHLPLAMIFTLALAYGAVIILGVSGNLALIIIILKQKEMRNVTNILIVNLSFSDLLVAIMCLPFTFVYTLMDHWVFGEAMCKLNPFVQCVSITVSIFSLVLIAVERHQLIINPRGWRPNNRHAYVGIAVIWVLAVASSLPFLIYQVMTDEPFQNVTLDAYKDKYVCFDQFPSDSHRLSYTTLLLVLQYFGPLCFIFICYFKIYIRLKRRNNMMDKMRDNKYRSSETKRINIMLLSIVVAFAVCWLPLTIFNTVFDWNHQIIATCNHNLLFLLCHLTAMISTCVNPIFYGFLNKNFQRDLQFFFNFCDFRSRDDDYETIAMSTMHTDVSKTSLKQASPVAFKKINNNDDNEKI
Method: NPY Receptor Binding Assay
Human NPY Y1 receptors were expressed in CHO cells. Binding assays were performed in 50 mM HEPES, pH 7.2, 2.5 mM CaCl2, 1 mM MgCl2 and 0.1% BSA containing 5-10 μg of membrane protein and 0.1 nM […] in a total volume of 200 μl. Non-specific binding was determined in the presence of 1 μM NPY. The reaction mixtures were incubated for 90 minutes at room temperature then filtered through Millipore MAFC glass fiber filter plates which had been pre-soaked in 0.5% polyethleneimine. The filters were washed with phosphate-buffered saline, and radioactivity was measured in a Packard TopCount scintillation counter.

Row | Ki | Structure (SMILES)
1 | > 10 µM | COc1ccc2nc(NCCc3ccc(/N=C4/N[C@@H](CC(C)C)C(=O)S4)cc3)sc2c1 [Example 345]
2 | > 10 µM | COc1cccc2sc(NCCc3ccc(/N=C4/N[C@@H](CC(C)C)C(=O)S4)cc3)nc12 [Example 364]
3 | > 10 µM | COc1cccc2sc(NCCc3ccc(/N=C4/N[C@@H](CC(=O)O)C(=O)S4)cc3)nc12 [Example 367]
4 | > 10 µM | CSCC[C@@H]1N/C(=N/c2ccc(CCNc3nc4ccccc4s3)cc2)SC1=O [Example 395]
5 | > 10 µM | CC(C)[C@@H]1N/C(=N\c2cccc(CCNc3nc4ccccc4s3)c2)SC1=O [Example 407]
6 | > 10 µM | Cc1ccc2nc(NCCc3ccc(/N=C4/N[C@@H](CC(=O)O)C(=O)S4)cc3)sc2c1 [Example 380]
7 | > 10 µM | O=C1S/C(=N/c2ccccc2CCNc2nc3ccccc3s2)N2CCC[C@@H]12 [Example 405]
8 | > 10 µM | C[C@@H]1N/C(=N/c2ccc(CCNc3nc4ccc(F)cc4s3)cc2)SC1=O [Example 403]
9 | > 10 µM | Cc1ccc2nc(NCCc3ccc(/N=C4/N[C@@H](C)C(=O)S4)cc3)sc2c1 [Example 381]
10 | > 10 µM | Cc1ccc2nc(NCCc3ccc(/N=C4/N[C@@H](CC(C)C)C(=O)S4)cc3)sc2c1 [Example 351]
11 | > 10 µM | O=C(O)C[C@@H]1N/C(=N/c2ccc(CCNc3nc4ccc(F)cc4s3)cc2)SC1=O [Example 402]
12 | > 10 µM | Cc1cccc2sc(NCCc3ccc(/N=C4/N[C@@H](CC(=O)O)C(=O)S4)cc3)nc12 [Example 372]
13 | > 10 µM | O=C1CN/C(=N/c2ccc(CCNc3nc4cc(Cl)c(Cl)cc4s3)cc2)S1 [Example 391]
14 | > 10 µM | COc1ccc2nc(NCCc3ccc(/N=C4\SC(=O)[C@@H]5CCCN45)cc3)sc2c1 [Example 347]
15 | > 10 µM | O=C(O)C[C@@H]1N/C(=N/c2ccc(CCNc3nc4cc(Cl)c(Cl)cc4s3)cc2)SC1=O [Example 392]
16 | > 10 µM | Cc1ccc2nc(NCCc3ccc(/N=C4/N[C@@H](C(C)C)C(=O)S4)cc3)sc2c1 [Example 378]
17 | > 10 µM | COc1ccc2nc(NCCc3ccc(/N=C4/N[C@@H](Cc5ccccc5)C(=O)S4)cc3)sc2c1 [Example 344]
18 | > 10 µM | O=C(O)C[C@@H]1N/C(=N\c2cccc(CCNc3nc4ccccc4s3)c2)SC1=O [Example 409]
19 | 1 to 10 µM | CSCC[C@@H]1N/C(=N/c2ccc(CCNc3nc4ccc(C)cc4s3)cc2)SC1=O [Example 357]
20 | > 10 µM | O=C1CN/C(=N\c2ccccc2CCNc2nc3ccccc3s2)S1 [Example 412]
21 | > 10 µM | COc1ccc2nc(NCCc3ccc(/N=C4/N[C@@H](CC(=O)O)C(=O)S4)cc3)sc2c1 [Example 348]

Same assay, conditions: Procedure A compounds, rated A/B/C

Row | Ki | Structure (SMILES)
22 | 1 to 10 µM | O=[N+]([O-])c1ccc2nc(NCCc3ccc(NC4=NCCS4)cc3)sc2c1 [Example 18]
23 | > 10 µM | c1cc(CCNc2nc3ccccc3s2)cc(NC2=NCCS2)c1 [Example 25]
24 | 1 to 10 µM | Clc1cc2nc(NCCc3ccc(NC4=NCCS4)cc3)sc2cc1Cl [Example 20]
25 | > 10 µM | c1ccc2sc(NCCc3ccc(N(C4=NCCS4)C4=NCCS4)cc3)nc2c1 [Example 14]
26 | 1 to 10 µM | Clc1ccc2nc(NCCc3ccc(NC4=NCCS4)cc3)sc2c1 [Example 19]

Same assay, conditions: Procedure B compounds, rated A/B/C

Row | Ki | Structure (SMILES)
27 | > 10 µM | O=C(c1ccccc1)N1CC2CCCN2/C1=N\c1ccc(CCNc2nc3ccccc3s2)cc1 (stereo not drawn) [Example 35]
28 | > 10 µM | CCOC(=O)N1CC(c2ccccc2)N=C1Nc1ccc(CCNc2nc3ccccc3s2)cc1 (stereo not drawn) [Example 27]
29 | > 10 µM | CCOC(=O)N1C(Nc2ccc(CCNc3nc4ccccc4s3)cc2)=NC(C)C1c1ccccc1 (stereo not drawn) [Example 28]
30 | > 10 µM | CCOC(=O)N1CC2(CCCC2)N=C1Nc1ccc(CCNc2nc3ccccc3s2)cc1 [Example 29]
31 | > 10 µM | CCC1CN(C(=O)c2ccccc2)C(Nc2ccc(CCNc3nc4ccccc4s3)cc2)=N1 (stereo not drawn) [Example 33]
32 | > 10 µM | O=C(c1ccccc1)N1CC2(CCCC2)N=C1Nc1ccc(CCNc2nc3ccccc3s2)cc1 [Example 32]

Same assay, conditions: Procedure C compounds, rated A/B/C

Row | Ki | Structure (SMILES)
33 | > 10 µM | CC(C)C[C@@H]1N=C(Nc2ccc(CCNc3nc4ccccc4s3)cc2)N(C(=O)c2ccccc2)C1=O [Example 53]
34 | > 10 µM | O=C(O)CC[C@@H]1N=C(Nc2ccc(CCNc3nc4ccccc4s3)cc2)N(C(=O)c2ccccc2)C1=O [Example 51]
35 | > 10 µM | CCOC(=O)N1C(=O)[C@H](C)N=C1Nc1ccc(CCNc2nc3ccccc3s2)cc1 [Example 37]

Same assay, conditions: Procedure E compounds, rated A/B/C

Row | Structure (SMILES) | Ki
36 | c1ccc(/N=C2\NCCCS2)c(CCNc2nc3ccccc3s2)c1 [Example 68] | > 10 µM
37 | Cc1ccc2nc(NCCc3ccc(/N=C4/N[C@H](C)CS4)cc3)sc2c1 [Example 95] | < 1 µM
38 | c1ccc(/N=C2\N[C@H]3c4ccccc4CC3S2)c(CCNc2nc3ccccc3s2)c1 (stereo partly drawn) [Example 183] | > 10 µM
39 | CCCC1CS/C(=N\c2ccc(CCNc3nc4ccc(C)cc4s3)cc2)N1 (stereo not drawn) [Example 91] | < 1 µM
40 | Clc1cc2nc(NCCc3ccc(N=C4NCCCS4)cc3)sc2cc1Cl [Example 72] | < 1 µM
41 | CC1CN/C(=N/c2ccc(CCNc3nc4cc(Cl)c(Cl)cc4s3)cc2)S1 (stereo not drawn) [Example 190] | > 10 µM
42 | CCCCC1CS/C(=N\c2ccc(CCNc3nc4ccc(S(C)(=O)=O)cc4s3)cc2)N1 (stereo not drawn) [Example 111] | 1 to 10 µM
43 | C[C@@H]1N/C(=N\c2cccc(CCNc3nc4ccccc4s3)c2)SC1c1ccccc1 (stereo partly drawn) [Example 185] | < 1 µM
44 | CC1(C)CS/C(=N\c2ccc(CCNc3nc4ccc([N+](=O)[O-])cc4s3)cc2)N1 [Example 76] | > 10 µM
45 | Cc1ccc2nc(NCCc3ccc(/N=C4/N[C@H](CC(C)C)CS4)cc3)sc2c1 [Example 88] | < 1 µM
46 | c1ccc(C2CN/C(=N/c3ccc(CCNc4nc5ccccc5s4)cc3)S2)cc1 (stereo not drawn) [Example 192] | > 10 µM
47 | CCC1CS/C(=N\c2ccc(CCNc3nc4ccc(OC)cc4s3)cc2)N1 (stereo not drawn) [Example 84] | < 1 µM

Results, then the molecule that gave them:

Row | Ki | Structure (SMILES)
48 | < 1 µM | Clc1ccccc1C1CCSC(Nc2ccc(CCNc3nc4ccccc4s3)cc2)=N1 (stereo not drawn) [Example 199]
49 | < 1 µM | Clc1ccc(C2CCSC(Nc3ccc(CCNc4nc5ccccc5s4)cc3)=N2)cc1 (stereo not drawn) [Example 337]
50 | > 10 µM | COc1cccc2sc(NCCc3ccc(/N=C4\SC5Cc6ccccc6[C@@H]5N4C)cc3)nc12 (stereo partly drawn) [Example 228]
51 | > 10 µM | Cc1cccc2sc(NCCc3ccc(/N=C4/NC(c5ccccc5)CCS4)cc3)nc12 (stereo not drawn) [Example 208]
52 | 1 to 10 µM | Clc1ccc2nc(NCCc3ccc(/N=C4/NC5(CCCC5)CS4)cc3)sc2c1 [Example 239]
53 | < 1 µM | Cc1ccc2nc(NCCc3ccc(/N=C4/NC(c5ccccc5)CCS4)cc3)sc2c1 (stereo not drawn) [Example 204]
54 | > 10 µM | CC1CN/C(=N/c2ccc(CCNc3nc4ccc(Cl)cc4s3)cc2)S1 (stereo not drawn) [Example 331]
55 | < 1 µM | c1ccc2sc(NCCc3ccc(/N=C4/NC5(CCCC5)CS4)cc3)nc2c1 [Example 271]
56 | > 10 µM | Cc1ccc2nc(NCCc3ccc(/N=C4\SC5Cc6ccccc6[C@@H]5N4C4CC4)cc3)sc2c1 (stereo partly drawn) [Example 224]
57 | > 10 µM | Cc1ccc2nc(NCCc3ccc(/N=C4\SC5CCC[C@H]5N4C)cc3)sc2c1 (stereo partly drawn) [Example 223]
58 | 1 to 10 µM | COc1ccc2nc(NCCc3ccc(/N=C4/N[C@H](C)CS4)cc3)sc2c1 [Example 218]
59 | < 1 µM | CC(C)C1CCSC(Nc2ccc(CCNc3nc4ccccc4s3)cc2)=N1 (stereo not drawn) [Example 334]

Same assay, conditions: Procedure G compounds, rated A/B/C

Row | Ki | Structure (SMILES)
60 | > 10 µM | COc1ccccc1-c1csc(Nc2ccc(CCNc3nc4ccccc4s3)cc2)n1 [Example 425]
61 | > 10 µM | CC(=O)c1sc(Nc2ccc(CCNc3nc4ccccc4s3)cc2)nc1C [Example 429]
62 | > 10 µM | Fc1ccc(-c2csc(Nc3ccc(CCNc4nc5ccccc5s4)cc3)n2)cc1 [Example 420]
63 | > 10 µM | Cc1nc(Nc2ccc(CCNc3nc4ccccc4s3)cc2)sc1C [Example 428]
64 | > 10 µM | c1ccc2sc(NCCc3ccc(Nc4nccs4)cc3)nc2c1 [Example 416]
65 | > 10 µM | Cc1csc(Nc2ccc(CCNc3nc4ccccc4s3)cc2)n1 [Example 415]

Same assay, conditions: Procedure H compounds, rated A/B/C

Row | Ki | Structure (SMILES)
66 | > 10 µM | O=C1N=C(Nc2ccc(CCNc3nc4ccccc4s3)cc2)SC1CCO (stereo not drawn) [Example 441]
67 | > 10 µM | CCCCC1SC(Nc2ccc(CCNc3nc4ccccc4s3)cc2)=NC1=O (stereo not drawn) [Example 442]

Same assay, conditions: Procedure I compounds, column head blank, rated A/B/C

Row | Ki | Structure (SMILES)
68 | 1 to 10 µM | c1ccc(C2CCCC(Nc3ccc(CCNc4nc5ccccc5s4)cc3)=N2)cc1 (stereo not drawn) [Example 449]
69 | 1 to 10 µM | c1ccc(C2CCCCC(Nc3ccc(CCNc4nc5ccccc5s4)cc3)=N2)cc1 (stereo not drawn) [Example 448]

Same assay, conditions: Table 1, rated A/B/C

Row | Ki | Structure (SMILES)
70 | < 1 µM | Brc1ccc(C2CCSC(Nc3ccc(CCNc4nc5ccccc5s4)cc3)=N2)cc1 (stereo not drawn) [Example 5]
71 | < 1 µM | CC(C)C1CCSC(Nc2ccc(CCNc3nc4ccccc4s3)cc2)=N1 (stereo not drawn) [Example 10]
72 | < 1 µM | Clc1ccc(C2CCSC(Nc3ccc(CCNc4nc5ccccc5s4)cc3)=N2)cc1 (stereo not drawn) [Example 2]
73 | < 1 µM | Clc1cccc(C2CCSC(Nc3ccc(CCNc4nc5ccccc5s4)cc3)=N2)c1 (stereo not drawn) [Example 4]
74 | < 1 µM | COc1ccc(C2CCSC(Nc3ccc(CCNc4nc5ccccc5s4)cc3)=N2)cc1 (stereo not drawn) [Example 3]
75 | < 1 µM | CC(C)CC1CCSC(Nc2ccc(CCNc3nc4ccccc4s3)cc2)=N1 (stereo not drawn) [Example 12]
